The subject of series [1] is ROCK-2. The experiment in a line: Total ROCK-2 expression, western blot. The class given is cell-based, human. The note with it: 1 μM, 24 hrs, FIG. 15C. Here is the method: Non-asthmatic primary human ASM cells were treated with either vehicle or pitavastatin (1 μM) for 24 hours. Cells were then immuno-stained for F-actin expression. […] Cell lysates were analyzed by western blot for total ROCK-1, total ROCK-2, total MLC-2, and phosphorylated MLC-2. As shown in FIGS. 15C and 15D, pitavastatin reduced the total expression of ROCK-1, ROCK-2, and MLC-2 (total and phosphorylated).

Series [2] relates to mouse PCLS. The experiment in a line: Viability of mouse PCLS (lung tissue toxicity). The note with it: FIG. 10F.
Series [3] relates to primary ASM cells. Put plainly: Potentiation of isoproterenol relaxation of histamine-induced ASM contraction. The class given is cell-based, human. To be noted: FIG. 17A. Here is the method:
Primary ASM cells from a non-asthmatic donor were serum-deprived for 2 days in a tissue culture flask, and then cultured to confluence for an additional 24 hrs in serum-free medium in 96-well traction force measurement plates (3 kPa stiffness). The pre-treatment contractile force was measured as described above. Cells were then treated with either vehicle (PEG400), control (serum-free medium) or Pitavastatin at concentrations of 10^−5 M, 10^−6 M, 10^−7 M, and 10^−8 M, for 24 hrs, and the baseline contractile force measured. ASM cells were then acutely treated with histamine (10 μM) for 30 minutes, and the histamine-induced contractile force was measured. The cells were then treated with isoproterenol (10^−6, 10^−7, 10^−8, 10^−9, and 10^−11 M) for 30 minutes, and the isoproterenol-relaxed ASM contractile force was measured. The percent “histamine contraction” was calculated as the ratio of isoproterenol-relaxed ASM contractile force to histamine-induced contractile force. […] FIG. 17B details the data boxed in FIG. 17A.

The subject of series [4] is eotaxin-3. The experiment in a line: IL13/TNFα-induced eotaxin-3 peptide secretion by ASM cells. The class given is cell-based, human. The note with it: 2 mM pitavastatin, 72 hrs; cytokines 18 hrs at 10 ng/mL; 10% FBS; FIG. 14A. The protocol:
Non-asthmatic primary human ASM cells were grown to confluence and were either untreated or pre-treated with 2 mM pitavastatin and GGPP (10 mM) for a total of 72 hours. Total cytokine stimulation was for 18 hours at 10 ng/mL. […] All experiments were conducted under serum-containing media conditions (10% FBS).

Series [5] relates to human ASM cells, histamine-induced contraction. Put plainly: Contractile force screening, histamine-induced ASM contraction. The class given is cell-based. Here is the method:
Contractile Force Screening: Human ASM cells were grown to confluence in 96-well plates on custom NuSil™ 8100 elastic substrates (Avantor, Inc., Radnor, Pa.) (R. Rokhzan et al., Lab Invest (2019) 99(1):138-45). Fluorescent beads (diameter ˜400 nm) were embedded in the substrate surface to enable traction force calculations based on their displacements. To measure fractions, an inverted epi-fluorescence microscope (DMI 6000B, Leica Inc., Germany) equipped with a heated chamber (37° C.), a monochrome camera (Leica DFC365 FX), and a motorized stage was used. Spatial images were recorded of substrate-embedded fluorescent beads at 10× magnification. Based on the bead displacements (resolution ˜15 μm) relative to a cell-free model, together with knowledge of substrate stiffness and thickness, fractions were computed using the approach of Fourier Transform Traction Cytometry (B. Yeganeh et al., Pharmacol Ther (2014) 143(1):87-110), modified to the case of cell monolayers (E. J. Whalen et al., Cell (2007) 129(3):511-22). From each fraction map, the root-mean-squared traction (RMST) value and strain energy were calculated and reported as a measure of normal contraction in the monolayer. On a well-by-well basis, the ratio of the strain energy after vs. before treatment was computed, and all values of a given treatment group were normalized to the mean of each treatment group.
In complete media, 0.08 μM pitavastatin is sufficient to inhibit histamine-mediated ASM contraction (FIG. 4A).

For series [6], the system named is eotaxin-3. Put plainly: Cytokine mixture (CM)-induced eotaxin-3 expression in ASM cells, dexamethasone with or without pitavastatin. The class given is cell-based, human. To be noted: pitavastatin 0.1, 0.5 or 1 μM added to dexamethasone 0.1, 1 or 5 μM, 60 hrs; CM 15 hrs; FIG. 18. Here is the method:
Primary human airway smooth muscle cells were cultured to confluence in serum-containing media (10% FBS), then pre-treated with dexamethasone (“Dex”) at 0.1, 1, or 5 μM, with or without pitavastatin (“Pit”) at 0.1, 0.5, or 1 μM concentrations for 60 hrs. The ASM cells were then exposed to a mixture of cytokines ([…] IL-13, IL-17, and TNFα, “CM”) for 15 hrs, and the expression of eotaxin-3 was measured. “NT” means no treatment.

Entries after “also recorded” stand apart in the source; their conditions may differ.

For `O=C(O)C[C@H](O)C[C@H](O)/C=C/c1c(C2CC2)nc2ccccc2c1-c1ccc(F)cc1` [pitavastatin], the “total (basal) expression of ROCK-2” value in series [1] is given as “reduced”. Moreover, in series [2], the lung tissue toxicity entry is “did not demonstrate any”. Moreover, the “effect of isoproterenol on histamine contraction compared to vehicle” value in series [3] (10^−7 M, 10^−6 M and 10^−5 M pitavastatin 24 hrs, 10^−9 M and 10^−8 M isoproterenol) was “potentiated”. Further, the “degree of relaxation compared to vehicle” value in series [3] (all concentrations of statin, 10^−11 M isoproterenol) was “not substantially different from vehicle”. Besides, the “IL13/TNFα-induced eotaxin-3 peptide secretion” value in series [4] was “inhibited”. In series [5], the “potency relative to SA in prevention of histamine-induced ASM contraction” value was “at least 5 times”. Further, the “histamine-induced ASM contraction” value in series [5] (0.4 μM statin, 24 hrs) was “renders histamine ineffective at inducing ASM contraction”; in series [5] (0.4 μM statin, 24 hrs, listed as Pit) it was “inhibits histamine-induced ASM contraction”; in series [5] (pre-treatment 24 hrs, histamine 10 μM, FIG. 4A/4B) it was “significantly reduced histamine-induced ASM contraction; also recorded: potently and significantly inhibited”. Besides, the “concentration sufficient to inhibit histamine-mediated ASM contraction” value in series [5] (complete media, FIG. 4A) stood at 0.08 µM. Moreover, the “potency ranking on histamine-induced ASM contraction” value in series [5] (pitavastatin, simvastatin, atorvastatin) was “most potent of the three drugs”. Further, in series [5] (serum starved media), the “concentration providing a similar extent of protection from histamine-induced contraction” value was found to be 0.4 µM. The eotaxin-3 expression entry in series [6] was “Significant reductions in eotaxin-3 expression”.

The values are drawn from patent US20230014352A1, “INHALED STATINS AS BRONCHODILATORS TO IMPROVE LUNG FUNCTION IN RESPIRATORY DISEASES” (priority 2019, published 2023).
